Square brackets hold non-standard residues; d marks the D form. Peptide text beside a SMILES is read from it. * marks the point of attachment. Dolaproine = CO[C@@H]([C@@H]1CCCN1)[C@@H](C)C(=O)O; Dil = CC[C@H](C)[C@H](NC)[C@@H](CC(=O)O)OC; X1 = C[C@@H](N*)[C@@H](O)c1ccccc1; NMeV = CN[C@H](C(=O)O)C(C)C
Experiments:
[1] = system: human thrombin generation (relipidated TF, normal pooled plasma); test: Thrombin generation assay (TGA); format: biochemical; details: 100 nM antibody, Example 18
Procedure: (§1) The TGA assay was performed using the calibrated-automated-thrombogram (CAT) instrument manufactured and distributed by STAGO. The test method design was equivalent to a standard CAT assay measurement, except that the plasma source was NPP in citrate/CTI. […] Relipidated TF was added to a 96-well assay plate, followed by addition of the antibody/NPP mixture. After a 10-min incubation or directly after combining the relipidated TF with antibody/NPP, thrombin generation was initiated by the addition of calcium and the thrombin substrate. The STAGO software was used to report the following parameters: Peak IIa (highest thrombin concentration generated [nM]); Lag Time (time to IIa generation [min]); ETP (endogenous thrombin potential, area under the curve [nM×min]); and ttPeak (time to Peak IIa [min]).
as §1, with “was normal pooled plasma (NPP)” for “was NPP”, “in citrate supplemented with corn trypsin inhibitor (citrate/CTI).” for “in citrate/CTI.”
TGA assay was performed using the calibrated-automated-thrombogram (CAT) instrument manufactured and distributed by STAGO (Diagnostica Stago SAS, Asnieres sur Seine, France). […] The anti-TF antibodies were titrated at 0, 10, 50 and 100 nM and mixed with NPP in citrate/CTI. Relipidated TF was added to a 96-well assay plate, followed by addition of the antibody/NPP mixture. After a 10-min incubation or directly after combining the relipidated TF with antibody/NPP, thrombin generation was initiated by the addition of calcium and the thrombin substrate. The STAGO software was used to report the following parameters: Peak IIa (highest thrombin concentration generated on the thrombin generation curve [nM]); Lag Time (time from assay start to the moment 10 nM of thrombin is formed [min]); ETP (endogenous thrombin potential, area under the curve [nM×min]); and ttPeak (time from assay start to Peak IIa [min]). […] As used herein, the term “thrombin generation assay” (TGA) refers to the TGA used in this example.

[2] = system: HCT-116 cells; test: G2/M arrest (phospho-Histone H3), HCT-116 cells; format: cell-based, human; details: 24 h treatment
Procedure: (§2) To further understand the resistance of endothelial cells to anti-TF ADCs, cell cycle progression was evaluated 24 h after addition of the cytokines and TF-specific ADCs. Arrest at the G2/M phase of the cell cycle was analyzed as previously described in Theunissen et al, Methods Enzymol, 2006, 409:251-284. Briefly, low-passage HUVECs (Lifeline Cell Technologies, Frederick, Md., USA), propagated in VascuLife VEGF-Mv Endothelial media (Lifeline Cell Technologies), and HCT-116 cells were seeded on 12-well plates. The next day, media was removed and replaced with fresh media (no cytokines) or media containing 5 ng/mL IL1-beta, 25 ng/mL TNF-alpha and 50 ng/mL VEGF (with cytokines). A titration of MMAE-linked ADCs or free MMAE was added to the cells. After 24 h of treatment, cells were fixed in ice-cold 70% ethanol. Subsequently, the cells were washed with flow cytometry buffer (PBS, 1% FBS, 0.1% Triton) and stained for 1 h with a 1:100 dilution of phospho-Histone H3 (Ser10) (D2C8 PE Conjugate, Cell Signaling Technology). After 2 washes, the cells were treated for 20 min with 100 μg/mL PureLink RNAse A (ThermoFisher Scientific), followed by the addition of the viability dye TO-PRO-3 Iodide (ThermoFisher Scientific). 40,000 events were collected on a Novocyte flow cytometer. In the Flowjo data analysis software cell doublets and aneuploid cells were excluded. […]

[3] = system: HUVECs; test: G2/M arrest (phospho-Histone H3), HUVECs; format: cell-based, human; details: 24 h treatment, with or without inflammatory cytokines
Procedure: as §2

[4] = system: gastric adenocarcinoma PDX; test: Gastric adenocarcinoma patient-derived xenograft model; format: in vivo, athymic nude mice; details: end of the study (day 46)
Procedure: TF-positive PDX models were performed in athymic nude mice (Envigo, Indianapolis, Ind.) to evaluate the efficacy of the ADCs in vivo. The animals' care was in accordance with institutional guidelines. Study animals were implanted unilaterally on the left flank with tumor fragments.
Animals were removed from study and euthanized once tumor size reached 1200 mm^3 or skin ulceration was evident. In addition, the MTV curve for the treatment group in question was no longer shown once an animal was removed from study due to size. TGI and statistical analyses were conducted in the same manner as for the CDX studies.

10H10: previously described TF-specific antibody (Versteeg et al., 2008; Teplyakov et al., 2017) [reference compound]
reduction of the peak IIa concentration ([1]; 10 min antibody pre-incubation): 48% | reduction of the peak IIa concentration ([1]; without antibody pre-incubation): 34%

CC[C@H](C)[C@@H]([C@@H](CC(=O)N1CCC[C@H]1[C@H](OC)[C@@H](C)C(=O)N[C@H](C)[C@@H](O)c1ccccc1)OC)N(C)C(=O)[C@@H](NC(=O)[C@@H](NC)C(C)C)C(C)C [MMAE, monomethyl auristatin E] (H-[NMeV]V[Dil][Dolaproine]-X1)
G2/M arrest, pH3-positive HCT-116 cells [2]: increase the phosphorylation of histone H3 to a similar extent | G2/M arrest, pH3-positive HUVECs [3]: increase the phosphorylation of histone H3 to a similar extent

TF-011 ADC
complete responders [4]: 1 animals | tumor-free survivors [4]: 5 animals
